Measured values from ChEMBL document CHEMBL1201862, “PubChem BioAssay data set” (2004).
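Dose response: 5 concentrations. Exposure: 48 h. Format: 96-well plates. Endpoint: linear interpolation; highest concentration if not reached. GI50 is the concentration that inhibits growth by half.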 The source made the active and inactive calls. No stated cut-off is given here; in the data, active = GI50 up to about 1.1 µM and inactive = higher.

Tests used:
Test in all cases: DTP human tumour cell line panel, 48 h
[1] = tested on: 786-0
[2] = tested on: A498
[3] = tested on: A549
[4] = tested on: ACHN
[5] = tested on: BT-549
[6] = tested on: CAKI-1
[7] = tested on: CCRF-CEM
[8] = tested on: COLO 205
[9] = tested on: DU-145
[10] = tested on: EKVX
[11] = tested on: HCC 2998
[12] = tested on: HCT-116
[13] = tested on: HCT-15
[14] = tested on: HL-60
[15] = tested on: HOP-62
[16] = tested on: HOP-92
[17] = tested on: HT-29
[18] = tested on: Hs-578T
[19] = tested on: K562
[20] = tested on: KM12
[21] = tested on: LOX IMVI
[22] = tested on: M14
[23] = tested on: MCF7
[24] = tested on: MDA-MB-231
[25] = tested on: MDA-MB-435
[26] = tested on: MDA-N
[27] = tested on: MOLT-4
[28] = tested on: Malme-3M
[29] = tested on: NCI-H226
[30] = tested on: NCI-H23
[31] = tested on: NCI-H460
[32] = tested on: NCI/ADR-RES
[33] = tested on: OVCAR-3
[34] = tested on: OVCAR-4
[35] = tested on: OVCAR-5
[36] = tested on: OVCAR-8
[37] = tested on: PC-3
[38] = tested on: RPMI-8226
[39] = tested on: RXF 393
[40] = tested on: SF-268
[41] = tested on: SF-295
[42] = tested on: SF-539
[43] = tested on: SK-MEL-28
[44] = tested on: SK-MEL-2
[45] = tested on: SK-MEL-5
[46] = tested on: SK-OV-3
[47] = tested on: SN12C
[48] = tested on: SNB-19
[49] = tested on: SNB-75
[50] = tested on: SW-620
[51] = tested on: TK-10
[52] = tested on: U-251
[53] = tested on: UACC-257
[54] = tested on: UACC-62
[55] = tested on: UO-31

In the case of `CC(=O)Oc1c(N2CCCCC2)c(C(=O)c2ccccc2)c(O)c2ccn(N(C)C)c12`, the GI50 [1] is reported as 17.5 µM (inactive), the GI50 [2] is reported as 15.3 µM (inactive) and the GI50 [3] is reported as 12.4 µM (inactive). For the same compound, the GI50 [4] was 18.5 µM (inactive), the GI50 [5] was 20.6 µM (inactive) and the GI50 [6] was 15.4 µM (inactive). The GI50 [7] was 15.7 µM (inactive), the GI50 [8] was 16.7 µM (inactive) and the GI50 [9] was 21.8 µM (inactive). The GI50 [10] was 16.1 µM (inactive), the GI50 [11] was 18.5 µM (inactive) and the GI50 [12] was 9.51 µM (inactive). The GI50 [13] was 18 µM, the GI50 [14] was 6.38 µM (inactive) and the GI50 [15] was 27.2 µM (inactive). The GI50 [16] was 23.9 µM (inactive), the GI50 [17] was 14.6 µM (inactive) and the GI50 [18] was 28.8 µM (inactive). For the same compound, the GI50 [19] was 34.4 µM (inactive), the GI50 [20] was 10.9 µM (inactive) and the GI50 [21] was 14.1 µM (inactive). The GI50 [22] was 21.7 µM (inactive), the GI50 [23] was 10.5 µM (inactive) and the GI50 [24] was 14 µM (inactive). The GI50 [25] was 19.7 µM (inactive), the GI50 [26] was 17.9 µM (inactive) and the GI50 [27] was 0.736 µM (active). For the same compound, the GI50 [28] was 17.3 µM (inactive), the GI50 [29] was 14.2 µM (inactive) and the GI50 [30] was 18.9 µM (inactive). For the same compound, the GI50 [31] was 21.2 µM (inactive), the GI50 [32] was 15.7 µM (inactive) and the GI50 [33] was 19.6 µM (inactive). The GI50 [34] was 24.5 µM (inactive), the GI50 [35] was 25.5 µM (inactive) and the GI50 [36] was 20.7 µM (inactive). The GI50 [37] was 10.9 µM (inactive), the GI50 [38] was 7.01 µM (inactive) and the GI50 [39] was 20.7 µM (inactive). For the same compound, the GI50 [40] was 21.9 µM (inactive), the GI50 [41] was 15 µM (inactive) and the GI50 [42] was 18.5 µM (inactive). The GI50 [43] was 19.1 µM (inactive), the GI50 [44] was 25.2 µM (inactive) and the GI50 [45] was 15.9 µM (inactive). For the same compound, the GI50 [46] was 20.8 µM (inactive), the GI50 [47] was 18.5 µM (inactive) and the GI50 [48] was 25.4 µM (inactive). For the same compound, the GI50 [49] was 13.2 µM (inactive), the GI50 [50] was 17.3 µM (inactive) and the GI50 [51] was 16.7 µM (inactive). For the same compound, the GI50 [52] was 16.7 µM (inactive), the GI50 [53] was 16.8 µM (inactive) and the GI50 [54] was 15 µM (inactive). For the same compound, the GI50 [55] was 17.6 µM (inactive).
